{"source": "ChEMBL document CHEMBL3352227", "about": "“Synthesis, antimycobacterial and antibacterial evaluation of l-[(1R, 2S)-2-fluorocyclopropyl]fluoroquinolone derivatives containing an oxime functional moiety” (Eur J Med Chem, 2014)"}
{"tested_on": "Klebsiella pneumoniae", "assay": "Antibacterial activity against Klebsiella pneumoniae 12-4 after 18 to 24 hrs by standard twofold serial dilution method", "assay_type": "functional", "units": {"MIC": "µg/mL"}}
{"compound": "CO/N=C1/CN(c2cc3c(cc2F)c(=O)c(C(=O)O)cn3[C@@H]2C[C@@H]2F)[C@H]1CN", "MIC": 0.015}
{"tested_on": "Klebsiella pneumoniae", "assay": "Antibacterial activity against Klebsiella pneumoniae 12-2 after 18 to 24 hrs by standard twofold serial dilution method", "assay_type": "functional", "units": {"MIC": "µg/mL"}}
{"compound": "CO/N=C1/CN(c2cc3c(cc2F)c(=O)c(C(=O)O)cn3[C@@H]2C[C@@H]2F)[C@H]1CN", "MIC": 0.125}
{"tested_on": "Staphylococcus epidermidis", "assay": "Antibacterial activity against methicillin-sensitive Staphylococcus epidermidis 12-8 after 18 to 24 hrs by standard twofold serial dilution method", "assay_type": "functional", "units": {"MIC": "µg/mL"}}
{"compound": "CO/N=C1/CN(c2cc3c(cc2F)c(=O)c(C(=O)O)cn3[C@@H]2C[C@@H]2F)[C@H]1CN", "MIC": 0.125}
{"tested_on": "Staphylococcus epidermidis", "assay": "Antibacterial activity against methicillin-sensitive Staphylococcus epidermidis 12-6 after 18 to 24 hrs by standard twofold serial dilution method", "assay_type": "functional", "units": {"MIC": "µg/mL"}}
{"compound": "CO/N=C1/CN(c2cc3c(cc2F)c(=O)c(C(=O)O)cn3[C@@H]2C[C@@H]2F)[C@H]1CN", "MIC": 0.25}
{"tested_on": "Escherichia coli", "assay": "Antibacterial activity against extended-spectrum beta-lactamase producing Escherichia coli 12-14 after 18 to 24 hrs by standard twofold serial dilution method", "assay_type": "functional", "units": {"MIC": "µg/mL"}}
{"compound": "CO/N=C1/CN(c2cc3c(cc2F)c(=O)c(C(=O)O)cn3[C@@H]2C[C@@H]2F)[C@H]1CN", "MIC": 64}
{"tested_on": "Staphylococcus epidermidis", "assay": "Antibacterial activity against methicillin-sensitive Staphylococcus epidermidis 12-1 after 18 to 24 hrs by standard twofold serial dilution method", "assay_type": "functional", "units": {"MIC": "µg/mL"}}
{"compound": "CO/N=C1/CN(c2cc3c(cc2F)c(=O)c(C(=O)O)cn3[C@@H]2C[C@@H]2F)[C@H]1CN", "MIC": 0.25}
{"tested_on": "Escherichia coli", "assay": "Antibacterial activity against extended-spectrum beta-lactamase producing Escherichia coli 12-15 after 18 to 24 hrs by standard twofold serial dilution method", "assay_type": "functional", "units": {"MIC": "µg/mL"}}
{"compound": "CO/N=C1/CN(c2cc3c(cc2F)c(=O)c(C(=O)O)cn3[C@@H]2C[C@@H]2F)[C@H]1CN", "MIC": "> 128"}
{"tested_on": "Klebsiella pneumoniae", "assay": "Antibacterial activity against extended-spectrum beta-lactamase producin Klebsiella pneumoniae 12-3 after 18 to 24 hrs by standard twofold serial dilution method", "assay_type": "functional", "units": {"MIC": "µg/mL"}}
{"compound": "CO/N=C1/CN(c2cc3c(cc2F)c(=O)c(C(=O)O)cn3[C@@H]2C[C@@H]2F)[C@H]1CN", "MIC": 64}
{"tested_on": "Staphylococcus epidermidis", "assay": "Antibacterial activity against methicillin-sensitive Staphylococcus epidermidis 12-3 after 18 to 24 hrs by standard twofold serial dilution method", "assay_type": "functional", "units": {"MIC": "µg/mL"}}
{"compound": "CO/N=C1/CN(c2cc3c(cc2F)c(=O)c(C(=O)O)cn3[C@@H]2C[C@@H]2F)[C@H]1CN", "MIC": 0.25}
{"tested_on": "Staphylococcus aureus", "assay": "Antibacterial activity against methicillin-resistant Staphylococcus aureus 12-4 after 18 to 24 hrs by standard twofold serial dilution method", "assay_type": "functional", "units": {"MIC": "µg/mL"}}
{"compound": "CO/N=C1/CN(c2cc3c(cc2F)c(=O)c(C(=O)O)cn3[C@@H]2C[C@@H]2F)[C@H]1CN", "MIC": 64}
{"tested_on": "Pseudomonas aeruginosa", "assay": "Antibacterial activity against Pseudomonas aeruginosa 12-12 after 18 to 24 hrs by standard twofold serial dilution method", "assay_type": "functional", "units": {"MIC": "µg/mL"}}
{"compound": "CO/N=C1/CN(c2cc3c(cc2F)c(=O)c(C(=O)O)cn3[C@@H]2C[C@@H]2F)[C@H]1CN", "MIC": 0.25}
{"tested_on": "Klebsiella pneumoniae", "assay": "Antibacterial activity against extended-spectrum beta-lactamase producin Klebsiella pneumoniae 12-7 after 18 to 24 hrs by standard twofold serial dilution method", "assay_type": "functional", "units": {"MIC": "µg/mL"}}
{"compound": "CO/N=C1/CN(c2cc3c(cc2F)c(=O)c(C(=O)O)cn3[C@@H]2C[C@@H]2F)[C@H]1CN", "MIC": 0.5}
{"tested_on": "Klebsiella pneumoniae", "assay": "Antibacterial activity against extended-spectrum beta-lactamase producin Klebsiella pneumoniae 12-14 after 18 to 24 hrs by standard twofold serial dilution method", "assay_type": "functional", "units": {"MIC": "µg/mL"}}
{"compound": "CO/N=C1/CN(c2cc3c(cc2F)c(=O)c(C(=O)O)cn3[C@@H]2C[C@@H]2F)[C@H]1CN", "MIC": 64}
{"tested_on": "Escherichia coli", "assay": "Antibacterial activity against Escherichia coli ATCC 25922 after 18 to 24 hrs by standard twofold serial dilution method", "assay_type": "functional", "units": {"MIC": "µg/mL"}}
{"compound": "CO/N=C1/CN(c2cc3c(cc2F)c(=O)c(C(=O)O)cn3[C@@H]2C[C@@H]2F)[C@H]1CN", "MIC": "< 0.008"}
{"tested_on": "Staphylococcus aureus", "assay": "Antibacterial activity against methicillin-sensitive Staphylococcus aureus 12-5 after 18 to 24 hrs by standard twofold serial dilution method", "assay_type": "functional", "units": {"MIC": "µg/mL"}}
{"compound": "CO/N=C1/CN(c2cc3c(cc2F)c(=O)c(C(=O)O)cn3[C@@H]2C[C@@H]2F)[C@H]1CN", "MIC": 0.5}
{"tested_on": "Streptococcus pneumoniae", "assay": "Antibacterial activity against Streptococcus pneumoniae ATCC 49619 after 18 to 24 hrs by standard twofold serial dilution method", "assay_type": "functional", "units": {"MIC": "µg/mL"}}
{"compound": "CO/N=C1/CN(c2cc3c(cc2F)c(=O)c(C(=O)O)cn3[C@@H]2C[C@@H]2F)[C@H]1CN", "MIC": 0.125}
{"tested_on": "Mycobacterium tuberculosis", "assay": "Antimycobacterial activity against Mycobacterium tuberculosis H37Rv ATCC 27294 by MABA method", "assay_type": "functional", "units": {"MIC": "µg/mL"}}
{"compound": "CO/N=C1/CN(c2cc3c(cc2F)c(=O)c(C(=O)O)cn3[C@@H]2C[C@@H]2F)[C@H]1CN", "MIC": 0.5}
{"tested_on": "Staphylococcus aureus", "assay": "Antibacterial activity against methicillin-resistant Staphylococcus aureus 12-2 after 18 to 24 hrs by standard twofold serial dilution method", "assay_type": "functional", "units": {"MIC": "µg/mL"}}
{"compound": "CO/N=C1/CN(c2cc3c(cc2F)c(=O)c(C(=O)O)cn3[C@@H]2C[C@@H]2F)[C@H]1CN", "MIC": 32}
{"tested_on": "Streptococcus pneumoniae", "assay": "Antibacterial activity against Streptococcus pneumoniae 12-18 after 18 to 24 hrs by standard twofold serial dilution method", "assay_type": "functional", "units": {"MIC": "µg/mL"}}
{"compound": "CO/N=C1/CN(c2cc3c(cc2F)c(=O)c(C(=O)O)cn3[C@@H]2C[C@@H]2F)[C@H]1CN", "MIC": 0.5}
{"tested_on": "Klebsiella pneumoniae", "assay": "Antibacterial activity against extended-spectrum beta-lactamase producin Klebsiella pneumoniae 12-4 after 18 to 24 hrs by standard twofold serial dilution method", "assay_type": "functional", "units": {"MIC": "µg/mL"}}
{"compound": "CO/N=C1/CN(c2cc3c(cc2F)c(=O)c(C(=O)O)cn3[C@@H]2C[C@@H]2F)[C@H]1CN", "MIC": 8}
{"tested_on": "Staphylococcus aureus", "assay": "Antibacterial activity against methicillin-sensitive Staphylococcus aureus 12-1 after 18 to 24 hrs by standard twofold serial dilution method", "assay_type": "functional", "units": {"MIC": "µg/mL"}}
{"compound": "CO/N=C1/CN(c2cc3c(cc2F)c(=O)c(C(=O)O)cn3[C@@H]2C[C@@H]2F)[C@H]1CN", "MIC": 0.5}
{"tested_on": "Staphylococcus epidermidis", "assay": "Antibacterial activity against methicillin-resistant Staphylococcus epidermidis 12-6 after 18 to 24 hrs by standard twofold serial dilution method", "assay_type": "functional", "units": {"MIC": "µg/mL"}}
{"compound": "CO/N=C1/CN(c2cc3c(cc2F)c(=O)c(C(=O)O)cn3[C@@H]2C[C@@H]2F)[C@H]1CN", "MIC": 4}
{"tested_on": "Klebsiella pneumoniae", "assay": "Antibacterial activity against Klebsiella pneumoniae 12-1 after 18 to 24 hrs by standard twofold serial dilution method", "assay_type": "functional", "units": {"MIC": "µg/mL"}}
{"compound": "CO/N=C1/CN(c2cc3c(cc2F)c(=O)c(C(=O)O)cn3[C@@H]2C[C@@H]2F)[C@H]1CN", "MIC": 0.125}
{"tested_on": "Staphylococcus aureus", "assay": "Antibacterial activity against methicillin-sensitive Staphylococcus aureus 12-4 after 18 to 24 hrs by standard twofold serial dilution method", "assay_type": "functional", "units": {"MIC": "µg/mL"}}
{"compound": "CO/N=C1/CN(c2cc3c(cc2F)c(=O)c(C(=O)O)cn3[C@@H]2C[C@@H]2F)[C@H]1CN", "MIC": 0.25}
{"tested_on": "Staphylococcus aureus", "assay": "Antibacterial activity against methicillin-resistant Staphylococcus aureus 12-5 after 18 to 24 hrs by standard twofold serial dilution method", "assay_type": "functional", "units": {"MIC": "µg/mL"}}
{"compound": "CO/N=C1/CN(c2cc3c(cc2F)c(=O)c(C(=O)O)cn3[C@@H]2C[C@@H]2F)[C@H]1CN", "MIC": 32}
{"tested_on": "Escherichia coli", "assay": "Antibacterial activity against Escherichia coli 12-1 after 18 to 24 hrs by standard twofold serial dilution method", "assay_type": "functional", "units": {"MIC": "µg/mL"}}
{"compound": "CO/N=C1/CN(c2cc3c(cc2F)c(=O)c(C(=O)O)cn3[C@@H]2C[C@@H]2F)[C@H]1CN", "MIC": 1}
{"tested_on": "Staphylococcus aureus", "assay": "Antibacterial activity against Staphylococcus aureus ATCC 25923 after 18 to 24 hrs by standard twofold serial dilution method", "assay_type": "functional", "units": {"MIC": "µg/mL"}}
{"compound": "CO/N=C1/CN(c2cc3c(cc2F)c(=O)c(C(=O)O)cn3[C@@H]2C[C@@H]2F)[C@H]1CN", "MIC": 0.06}
{"tested_on": "Pseudomonas aeruginosa", "assay": "Antibacterial activity against Pseudomonas aeruginosa 12-14 after 18 to 24 hrs by standard twofold serial dilution method", "assay_type": "functional", "units": {"MIC": "µg/mL"}}
{"compound": "CO/N=C1/CN(c2cc3c(cc2F)c(=O)c(C(=O)O)cn3[C@@H]2C[C@@H]2F)[C@H]1CN", "MIC": 32}
{"tested_on": "Escherichia coli", "assay": "Antibacterial activity against extended-spectrum beta-lactamase producing Escherichia coli 12-3 after 18 to 24 hrs by standard twofold serial dilution method", "assay_type": "functional", "units": {"MIC": "µg/mL"}}
{"compound": "CO/N=C1/CN(c2cc3c(cc2F)c(=O)c(C(=O)O)cn3[C@@H]2C[C@@H]2F)[C@H]1CN", "MIC": 16}
{"tested_on": "Staphylococcus aureus", "assay": "Antibacterial activity against methicillin-sensitive Staphylococcus aureus 12-2 after 18 to 24 hrs by standard twofold serial dilution method", "assay_type": "functional", "units": {"MIC": "µg/mL"}}
{"compound": "CO/N=C1/CN(c2cc3c(cc2F)c(=O)c(C(=O)O)cn3[C@@H]2C[C@@H]2F)[C@H]1CN", "MIC": 0.5}
{"tested_on": "Staphylococcus epidermidis", "assay": "Antibacterial activity against methicillin-resistant Staphylococcus epidermidis 12-1 after 18 to 24 hrs by standard twofold serial dilution method", "assay_type": "functional", "units": {"MIC": "µg/mL"}}
{"compound": "CO/N=C1/CN(c2cc3c(cc2F)c(=O)c(C(=O)O)cn3[C@@H]2C[C@@H]2F)[C@H]1CN", "MIC": 8}
{"tested_on": "Escherichia coli", "assay": "Antibacterial activity against extended-spectrum beta-lactamase producing Escherichia coli 12-2 after 18 to 24 hrs by standard twofold serial dilution method", "assay_type": "functional", "units": {"MIC": "µg/mL"}}
{"compound": "CO/N=C1/CN(c2cc3c(cc2F)c(=O)c(C(=O)O)cn3[C@@H]2C[C@@H]2F)[C@H]1CN", "MIC": 128}
